Test [1] concerns the target T1, Mcl-1/Bim interaction, recombinant human Mcl-1 (171-327) (Homo sapiens, UniProt Q07820).
T1 construct: made in house
The experiment in a line: Cell free Mcl-1: Bim Affinity Assay (Mcl-1 HTRF). Type of test: binding. In short, it runs like this: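 Biotin-Bim(51-76) peptide, TR-FRET readout, overnight incubation; IC50 from duplicate competition curves, 4-parameter fit.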

Test [2] relates to OPM-2 human multiple myeloma cell line. The experiment in a line: Cell Viability Assay (OPM-2 10 FBS). To be noted: OPM-2 cells, CellTiter-Glo. In kind it is cell-based. An outline of the steps: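 IC50 from 4-parameter logistic fit of CellTiter-Glo luminescence. 3000 cells/well, 10% FBS medium, serial compound dilutions, 16 h, 37 °C/5% CO2; read 25 min post-reagent.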
The mark [3] stands for this setting: TR-FRET, 0.1 nM Mcl-1 (171-327), 0.05 nM biotin-Bim (51-76).
Where [4] appears, read: Homo sapiens, OPM-2, 16 h, 16 h.
Where [5] appears, read: cell free Mcl-1:Bim TR-FRET, recombinant human Mcl-1 (171-327).

For 22 compounds, IC50 results are on record in patent US12091425B2 (AMGEN INC., priority 2016, dated 2024).

T1 sequence (Q07820 171-327): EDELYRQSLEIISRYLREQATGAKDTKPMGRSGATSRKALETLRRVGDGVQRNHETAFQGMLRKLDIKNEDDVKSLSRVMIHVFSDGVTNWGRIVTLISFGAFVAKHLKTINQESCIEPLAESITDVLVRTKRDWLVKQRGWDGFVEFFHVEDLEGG

Turning to `COC1CC(N2[C@H](C)C/C=C/[C@H](O)[C@@H]3CC[C@H]3CN3C[C@@]4(CCCc5cc(Cl)ccc54)COc4ccc(cc43)C(=O)NS2(=O)=O)C1` (stereo partly drawn) [Example 79, (1S,3′R,6′R,7′S,8′E,11R)-6-chloro-7′-hydroxy-12′-(cis-3-methoxycyclobutyl)-11′-methyl-3,4-dihydro-2H,15′H-spiro[naphthalene-1,22′-[20]oxa[13]thia[1,12,14]triazatetracyclo[14.7.2.0^3,6.0^19,24]pentacosa[8,16,18,24]tetraen]-15′-one 13′,13′-dioxide], the figures for the IC50 in test [1] (setting [3]) and in test [2] (setting [4]) were 4.18 nM and 3620 nM, respectively.

Turning to `C[C@@H]1[C@@H](C)C/C=C/[C@H](OCCN2CCCC(F)(F)C2)[C@@H]2CC[C@H]2CN2C[C@@]3(CCCc4cc(Cl)ccc43)COc3ccc(cc32)C(=O)NS1(=O)=O` [Example 515, (1S,3′R,6′R,7′S,8′E,11′S,12′R)-6-chloro-7′-(2-(3,3-difluoro-1-piperidinyl)ethoxy)-11′,12′-dimethyl-3,4-dihydro-2H,15′H-spiro[naphthalene-1,22′-[20]oxa[13]thia[1,14]diazatetracyclo[14.7.2.0^3,6.0^19,24]pentacosa [8,16,18,24]tetraen]-15′-one 13′,13′-dioxide], the 50% inhibitory concentration (IC50) in test [1] (setting [5]) was 4.87 nM; in test [2] (setting [4]), 2520 nM.

As for `C[C@@H]1[C@@H](C)C/C=C/[C@H](OCCC2CCOCC2)[C@@H]2CC[C@H]2CN2C[C@@]3(CCCc4cc(Cl)ccc43)COc3ccc(cc32)C(=O)NS1(=O)=O` [Example 722, (1S,3′R,6′R,7′S,8′E,11′S,12′R)-6-chloro-11′,12′-dimethyl-7′-(2-(tetrahydro-2H-pyran-4-yl)ethoxy)-3,4-dihydro-2H,15′H-spiro [naphthalene-1,22′-[20]oxa[13]thia[1,14]diazatetracyclo [14.7.2.0^3,6.0^19,24]pentacosa[8,16,18,24]tetraen]-15′-one-13′, 13′-dioxide], the IC50 turned out to be 11.9 nM in test [1] (setting [5]) and 473 nM in test [2] (setting [4]).

Regarding `CCC1CCC=CC(OC(C)C(N)=O)C2CCC2CN2CC3(CCCc4cc(Cl)ccc43)COc3ccc(cc32)C(=O)NS1(=O)=O` (mixture of isomers) [Example 1006], the IC50 was 0.81 nM in test [1] (setting [3]) and 11600 nM in test [2] (16 h incubation).

As to `CO[C@H]1/C=C/C[C@H]2C[C@@H]2S(=O)(=O)NC(=O)c2ccc3c(c2)N(C[C@@H]2CC[C@H]21)C[C@@]1(CCCc2cc(Cl)ccc21)CO3` (single isomer, unassigned) [Example 804], the values for the IC50 in test [1] (setting [5]) and in test [2] (16 h) were 0.658 nM and 377 nM, respectively.

For `C[C@@H]1CC/C=C/[C@H](OCc2cn(C)nn2)[C@@H]2CC[C@H]2CN2C[C@@]3(CCCc4cc(Cl)ccc43)COc3ccc(cc32)C(=O)NS1(=O)=O` [Example 417, (1S,3′R,6′R,7′S,8′E,12′R)-6-chloro-12′-methyl-7′-((1-methyl-1H-1,2,3-triazol-4-yl)methoxy)-3,4-dihydro-2H,15′H-spiro[naphthalene-1,22′-[20]oxa[13]thia[1,14]diazatetracyclo[14.7.2.0^3,6.0^19,24]pentacosa [8,16,18,24]tetraen]-15′-one 13′,13′-dioxide], the IC50 in test [1] (setting [3]) is 0.214 nM; in test [2] (setting [4]), 834 nM.

For `O=C1NS(=O)(=O)NCC/C=C\[C@H](O)[C@@H]2CC[C@H]2CN2C[C@@]3(CCCc4cc(Cl)ccc43)COc3ccc1cc32` [Example 36, (1S,3′R,6′R,7′S,8′Z)-6-chloro-7′-hydroxy-3,4-dihydro-2H,15′H-spiro[naphthalene-1,22′-[20]oxa[13]thia[1,12,14]triazatetracyclo[14.7.2.0^3,6.0^19,24]pentacosa[8,16,18,24]tetraen]-15′-one 13′,13′-dioxide], the half-maximal inhibitory concentration (IC50) came out at 0.535 nM in test [1] (setting [3]) and 2590 nM in test [2] (setting [4]).

Regarding `CO[C@H]1/C=C/C[C@H]2COCC[C@@H]2S(=O)(=O)NC(=O)c2ccc3c(c2)N(C[C@@H]2CC[C@H]21)C[C@@]1(CCCc2cc(Cl)ccc21)CO3` (single isomer, unassigned) [Example 321], the IC50 in test [1] (setting [3]) came to 2.29 nM; in test [2] (16 h) it was 2180 nM.

For `COCCO[C@H]1/C=C/C[C@H](C)N(CCOC)S(=O)(=O)NC(=O)c2ccc3c(c2)N(C[C@@H]2CC[C@H]21)C[C@@]1(CCCc2cc(Cl)ccc21)CO3` (single isomer, unassigned) [Example 69], the IC50 was 0.529 nM in test [1] (setting [3]) and 276 nM in test [2] (setting [4]).

As for `C[C@@H]1[C@@H](C)C/C=C/[C@H](OCC(=O)NCC(F)(F)F)[C@@H]2CC[C@H]2CN2C[C@@]3(CCCc4cc(Cl)ccc43)COc3ccc(cc32)C(=O)NS1(=O)=O` [Example 297, 2-(((1S,3′R,6′R,7′S,8′E,11′S,12′R)-6-chloro-11′,12′-dimethyl-13′,13′-dioxido-15′-oxo-3,4-dihydro-2H-spiro[naphthalene-1,22′-[20]oxa[13]thia[1,14]diazatetracyclo[14.7.2.0^3,6.0^19,24]pentacosa [8,16,18,24]tetraen]-7′-yl)oxy)-N-(2,2,2-trifluoroethyl)acetamide], the results for the IC50 in test [1] (setting [3]) and in test [2] (setting [4]) were 0.654 nM and 478 nM, respectively.

Turning to `COCCO[C@H]1/C=C/C[C@H]2COC[C@@H]2S(=O)(=O)NC(=O)c2ccc3c(c2)N(C[C@@H]2CC[C@H]21)C[C@@]1(CCCc2cc(Cl)ccc21)CO3` (single isomer, unassigned) [Example 1034], the IC50 in test [1] (setting [3]) amounted to 4.04 nM; in test [2] (16 h incubation) it was 8050 nM.

For `C[C@@H]1[C@@H](C)C/C=C/[C@H](OCC(=O)N2CC[C@H](O)C2)[C@@H]2CC[C@H]2CN2C[C@@]3(CCCc4cc(Cl)ccc43)COc3ccc(cc32)C(=O)NS1(=O)=O` [Example 310, (1S,3′R,6′R,7′S,8′E,11′S,12′R)-6-chloro-7′-(2-((3S)-3-hydroxy-1-pyrrolidinyl)-2-oxoethoxy)-11′,12′-dimethyl-3,4-dihydro-2H,15′H-spiro[naphthalene-1,22′-[20]oxa[13]thia[1,14]diazatetracyclo[14.7.2.0^3,6.0^19,24]pentacosa [8,16,18,24]tetraen]-15′-one 13′,13′-dioxide], the values for the IC50 in test [1] (setting [3]) and in test [2] (setting [4]) were 0.109 nM and 792 nM, respectively.

Regarding `COC[C@H](O)C[C@@H]1CC/C=C/[C@H](OC)[C@@H]2CC[C@H]2CN2C[C@@]3(CCCc4cc(Cl)ccc43)COc3ccc(cc32)C(=O)NS1(=O)=O` (single isomer, unassigned) [Example 651], the IC50 in test [1] (setting [5]) turned out to be 0.316 nM; in test [2] (16 h), 229 nM.

With `CCC1CCC=CC(OC2CCOC2=O)C2CCC2CN2CC3(CCCc4cc(Cl)ccc43)COc3ccc(cc32)C(=O)NS1(=O)=O` (single isomer, unassigned) [Example 424], the results for the IC50 in test [1] (setting [3]) and in test [2] (setting [4]) were 0.501 nM and 248 nM, respectively.

As to `COC(=O)CC1CCC=CC(O)C2CCC2CN2CC3(CCCc4cc(Cl)ccc43)COc3ccc(cc32)C(=O)NS1(=O)=O` (single isomer, unassigned) [Example 619], the IC50 in test [1] (setting [5]) came out at 0.187 nM; in test [2] (16 h), 401 nM.

As to `CCN1CC/C=C/[C@H](OCC(=O)N2CCCC2)[C@@H]2CC[C@H]2CN2C[C@@]3(CCCc4cc(Cl)ccc43)COc3ccc(cc32)C(=O)NS1(=O)=O` [Example 89, (1S,3′R,6′R,7′S,8′E)-6-chloro-12′-ethyl-7′-(2-oxo-2-(1-pyrrolidinyl)ethoxy)-3,4-dihydro-2H,15′H-spiro[naphthalene-1,22′-[20]oxa[13]thia[1,12,14]triazatetracyclo[14.7.2.0^3,6.0^19,24]pentacosa[8,16,18,24]tetraen]-15′-one 13′,13′-dioxide], the values for the IC50 in test [1] (setting [3]) and in test [2] (setting [4]) were 0.666 nM and 798 nM, respectively.

Turning to `C[C@H]1C/C=C\[C@H](O)[C@@H]2CC[C@H]2CN2C[C@@]3(CCCc4cc(Cl)ccc43)COc3ccc(cc32)C(=O)NS(=O)(=O)N1C[C@H]1CCCO1` (single isomer, unassigned) [Example 54], the IC50 in test [1] (setting [3]) is 0.781 nM; in test [2] (setting [4]) it was 774 nM.

Take `Cc1noc(C)c1CO[C@@H]1/C=C/CCCS(=O)(=O)NC(=O)c2ccc3c(c2)N(C[C@@H]2CC[C@H]21)C[C@@]1(CCCc2cc(Cl)ccc21)CO3` [Example 214, (1S,3′R,6′R,7′R,8′E)-6-chloro-7′-((3,5-dimethyl-4-isoxazolyl)methoxy)-3,4-dihydro-2H,15′H-spiro[naphthalene-1,22′-[20]oxa[13]thia[1,14]diazatetracyclo[14.7.2.0^3,6.0^19,24]pentacosa [8,16,18,24]tetraen]-15′-one 13′,13′-dioxide]: the IC50 in test [1] (setting [3]) was 12.3 nM; in test [2] (setting [4]), 2280 nM.

With `CO[C@H]1C/C=C/[C@H](OCCN2CCOCC2)[C@@H]2CC[C@H]2CN2C[C@@]3(CCCc4cc(Cl)ccc43)COc3ccc(cc32)C(=O)NS(=O)(=O)[C@@H]1C[C@@H]1CCCO1` (single isomer, unassigned) [Example 645], the values for the IC50 in test [1] (setting [5]) and in test [2] (16 h) were 0.589 nM and 125 nM, respectively.

Regarding `C[C@@H]1[C@@H](C)C/C=C/[C@H](OC[C@@H](C)O)[C@@H]2CC[C@H]2CN2C[C@@]3(CCCc4cc(Cl)ccc43)COc3ccc(cc32)C(=O)NS1(=O)=O` (single isomer, unassigned) [Example 528], the results for the IC50 in test [1] (setting [5]) and in test [2] (16 h) were 0.253 nM and 69.6 nM, respectively.

Regarding `O=C1NS(=O)(=O)C2CC2CC=CC(O)C2CCC2CN2CC3(CCCc4cc(Cl)ccc43)COc3ccc1cc32` (single isomer, unassigned) [Example 796], the IC50 in test [1] (setting [5]) amounted to 0.45 nM; in test [2] (16 h), 195 nM.

As to `COC(=O)CC1C(C)CC=CC(O)C2CCC2CN2CC3(CCCc4cc(Cl)ccc43)COc3ccc(cc32)C(=O)NS1(=O)=O` (centres unmarked) [Example 647], the IC50 came out at 0.188 nM in test [1] (setting [5]) and 131 nM in test [2] (setting [4]).

In general, IC50 refers to the concentration at which inhibition is half-maximal.
